Measured values: patent publication US9593108B2, “Compounds and methods for antiviral treatment” (PTC Therapeutics, Inc., priority 2009, dated 2017)

Tests used:
[1] = tested on: HCV replicon RNA (GenBank Accession No. AJ242654); assay: HCV Replicon Assay (replicon RNA reduction and/or Fluc reporter signal); type: cell-based, Hepatitis C virus; settings: Hepatitis C virus, 72 h, replicon-containing cells cultured with test compound for up to 3 days
Outline: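 IC50 values mostly reflect the drop in replicon RNA, though Fluc reporter signal may also be used. Compound incubated with cells carrying the bicistronic replicon for as long as 3 days; interferon served as positive control.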

SMILES | IC50 [1] | melting point
CC(C)(C)NS(=O)(=O)c1ccc(-c2c(C(N)=O)c3cc(C(F)(F)F)cnc3n2C2CCCCC2)cc1 [Cpd 443, 2-[4-(tert-butylsulfamoyl)phenyl]-1-cyclohexyl-5-(trifluoromethyl)-1H-pyrrolo[2,3-b]pyridine-3-carboxamide] | < 500 nM | 290 to 292 °C
C[C@@H](NS(=O)(=O)c1ccc(-c2c(C(N)=O)c3cc(C(F)(F)F)cnc3n2C2CCCCC2)cc1)C(F)(F)F [Cpd 444, 1-cyclohexyl-5-(trifluoromethyl)-2-(4-{[(2R)-1,1,1-trifluoropropan-2-yl]sulfamoyl}phenyl)-1H-pyrrolo[2,3-b]pyridine-3-carboxamide] | < 500 nM | 285 to 287 °C
CC(C)S(=O)(=O)Nc1ccc(-c2c(C(N)=O)c3cc(C(F)(F)F)cnc3n2C2CCCCC2)cc1 [Cpd 446, 1-cyclohexyl-2-{4-[(propan-2-ylsulfonyl)amino]phenyl}-5-(trifluoromethyl)-1H-pyrrolo[2,3-b]pyridine-3-carboxamide] | < 500 nM | 203 to 205 °C
CC1(S(=O)(=O)Nc2ccc(-c3c(C(N)=O)c4cc(C(F)(F)F)cnc4n3C3CCCCC3)cc2)CC1 [Cpd 447, 1-cyclohexyl-2-(4-{[(1-methylcyclopropyl)sulfonyl]amino}phenyl)-5-(trifluoromethyl)-1H-pyrrolo[2,3-b]pyridine-3-carboxamide] | < 500 nM | 268 to 270 °C
NC(=O)c1c(-c2ccc(NS(=O)(=O)C3CC3)cc2)n(C2CCCCC2)c2ncc(C(F)(F)F)cc12 [Cpd 448, 1-cyclohexyl-2-{4-[(cyclopropylsulfonyl)amino]phenyl}-5-(trifluoromethyl)-1H-pyrrolo[2,3-b]pyridine-3-carboxamide] | 500 to 2000 nM | 220 to 222 °C
NC(=O)c1c(-c2ccc(NS(=O)(=O)C3CCC3)cc2)n(C2CCCCC2)c2ncc(C(F)(F)F)cc12 [Cpd 449, 2-{4-[(cyclobutylsulfonyl)amino]phenyl}-1-cyclohexyl-5-(trifluoromethyl)-1H-pyrrolo[2,3-b]pyridine-3-carboxamide] | 500 to 2000 nM | 256 to 258 °C
Cc1cnc2c(c1)c(C#N)c(-c1ccc(S(=O)(=O)N[C@@H](C)C(F)(F)F)cn1)n2-c1nccs1 [Cpd 450, 6-[3-cyano-5-methyl-1-(1,3-thiazol-2-yl)-1H-pyrrolo[2,3-b]pyridin-2-yl]-N-[(2S)-1,1,1-trifluoropropan-2-yl]pyridine-3-sulfonamide] | < 500 nM | 208 to 210 °C
C[C@H](NS(=O)(=O)c1ccc(-c2c(C#N)c3cc(C(F)F)cnc3n2C2CCC2)nc1)C(F)(F)F [Cpd 452, 6-[3-cyano-1-cyclobutyl-5-(difluoromethyl)-1H-pyrrolo[2,3-b]pyridin-2-yl]-N-[(2S)-1,1,1-trifluoropropan-2-yl]pyridine-3-sulfonamide] | < 500 nM | 158 to 159 °C
C[C@H](NS(=O)(=O)c1ccc(-c2c(C#N)c3cc(C(F)F)cnc3n2C2CCC2)cc1)C(F)(F)F [Cpd 453, 4-[3-cyano-1-cyclobutyl-5-(difluoromethyl)-1H-pyrrolo[2,3-b]pyridin-2-yl]-N-[(2S)-1,1,1-trifluoropropan-2-yl]benzenesulfonamide] | < 500 nM | 203 to 205 °C
C[C@H](NS(=O)(=O)c1cnc(-c2c(C#N)c3cc(C(F)F)cnc3n2C2CCC2)nc1)C(F)(F)F [Cpd 454, 2-[3-cyano-1-cyclobutyl-5-(difluoromethyl)-1H-pyrrolo[2,3-b]pyridin-2-yl]-N-[(2S)-1,1,1-trifluoropropan-2-yl]pyrimidine-5-sulfonamide] | < 500 nM | 155 to 156 °C
CC(C)NS(=O)(=O)c1ccc(-c2c(C#N)c3cc(C(F)F)cnc3n2C2CCC2)nc1 [Cpd 455, 6-[3-cyano-1-cyclobutyl-5-(difluoromethyl)-1H-pyrrolo[2,3-b]pyridin-2-yl]-N-(propan-2-yl)pyridine-3-sulfonamide] | < 500 nM | 189 to 190 °C
C[C@H](NS(=O)(=O)c1ccc(-c2c(C#N)c3cc(C(F)F)cnc3n2C2CCC2)nc1)C1CC1 [Cpd 458, 6-[3-cyano-1-cyclobutyl-5-(difluoromethyl)-1H-pyrrolo[2,3-b]pyridin-2-yl]-N-[(1S)-1-cyclopropylethyl]pyridine-3-sulfonamide] | < 500 nM | 164 to 165 °C
CC(C)S(=O)(=O)Nc1ccc(-c2c(C#N)c3cc(C(F)F)cnc3n2C2CCC2)cc1 [Cpd 459, N-{4-[3-cyano-1-cyclobutyl-5-(difluoromethyl)-1H-pyrrolo[2,3-b]pyridin-2-yl]phenyl}propane-2-sulfonamide] | < 500 nM | 179 to 180 °C
N#Cc1c(-c2ccc(NS(=O)(=O)C3CC3)cc2)n(C2CCC2)c2ncc(C(F)F)cc12 [Cpd 460, N-{4-[3-cyano-1-cyclobutyl-5-(difluoromethyl)-1H-pyrrolo[2,3-b]pyridin-2-yl]phenyl}cyclopropanesulfonamide] | < 500 nM | 193 to 195 °C
C[C@H](NS(=O)(=O)c1ccc(-c2c(C#N)c3cc(F)cnc3n2-c2cc(F)ccn2)nc1)C(F)(F)F [Cpd 461, 6-[3-cyano-5-fluoro-1-(4-fluoropyridin-2-yl)-1H-pyrrolo[2,3-b]pyridin-2-yl]-N-[(2S)-1,1,1-trifluoropropan-2-yl]pyridine-3-sulfonamide] | < 500 nM | 186 to 188 °C
C[C@H](NS(=O)(=O)c1ccc(-c2c(C#N)c3cc(F)cnc3n2-c2ncc(F)cn2)nc1)C(F)(F)F [Cpd 462, 6-[3-cyano-5-fluoro-1-(5-fluoropyrimidin-2-yl)-1H-pyrrolo[2,3-b]pyridin-2-yl]-N-[(2S)-1,1,1-trifluoropropan-2-yl]pyridine-3-sulfonamide] | < 500 nM | 180 to 182 °C
Cc1cnc2c(C#N)c(-c3ccc(S(=O)(=O)N[C@@H](C)C(F)(F)F)cn3)n(-c3cnccn3)c2c1 [Cpd 463, 6-[3-cyano-6-methyl-1-(pyrazin-2-yl)-1H-pyrrolo[3,2-b]pyridin-2-yl]-N-[(2S)-1,1,1-trifluoropropan-2-yl]pyridine-3-sulfonamide] | < 500 nM | 288 to 289 °C
Cc1cnc2c(C#N)c(-c3ccc(S(=O)(=O)N[C@@H](C)C(F)(F)F)cn3)n(-c3cncnc3)c2c1 [Cpd 464, 6-[3-cyano-6-methyl-1-(pyrimidin-5-yl)-1H-pyrrolo[3,2-b]pyridin-2-yl]-N-[(2S)-1,1,1-trifluoropropan-2-yl]pyridine-3-sulfonamide] | 2000 to 5000 nM | 229 to 230 °C
Cc1cnc2c(C#N)c(-c3ccc(S(=O)(=O)N[C@@H](C)C(F)(F)F)cn3)n(-c3ccccn3)c2c1 [Cpd 465, 6-[3-cyano-6-methyl-1-(pyridin-2-yl)-1H-pyrrolo[3,2-b]pyridin-2-yl]-N-[(2S)-1,1,1-trifluoropropan-2-yl]pyridine-3-sulfonamide] | < 500 nM | 242 to 244 °C
Cc1cnc2c(C#N)c(-c3ccc(S(=O)(=O)N[C@@H](C)C(F)(F)F)cn3)n(-c3cccnc3)c2c1 [Cpd 466, 6-[3-cyano-6-methyl-1-(pyridin-3-yl)-1H-pyrrolo[3,2-b]pyridin-2-yl]-N-[(2S)-1,1,1-trifluoropropan-2-yl]pyridine-3-sulfonamide] | < 500 nM | 278 to 279 °C
Cc1cnc2c(C#N)c(-c3ccc(S(=O)(=O)N[C@@H](C)C(F)(F)F)cn3)n(-c3ccc(F)cn3)c2c1 [Cpd 467, 6-[3-cyano-1-(5-fluoropyridin-2-yl)-6-methyl-1H-pyrrolo[3,2-b]pyridin-2-yl]-N-[(2S)-1,1,1-trifluoropropan-2-yl]pyridine-3-sulfonamide] | < 500 nM | 263 to 265 °C
Cc1cnc2c(C#N)c(-c3ccc(S(=O)(=O)N[C@@H](C)C(F)(F)F)cn3)n(-c3cscn3)c2c1 [Cpd 468, 6-[3-cyano-6-methyl-1-(1,3-thiazol-4-yl)-1H-pyrrolo[3,2-b]pyridin-2-yl]-N-[(2S)-1,1,1-trifluoropropan-2-yl]pyridine-3-sulfonamide] | < 500 nM | 244 to 245 °C
C[C@H](NS(=O)(=O)c1ccc(-c2c(C(N)=O)c3cc(C(F)F)cnc3n2C2CCC2)nc1)C(F)(F)F [Cpd 469, 1-cyclobutyl-5-(difluoromethyl)-2-(5-{[(2S)-1,1,1-trifluoropropan-2-yl]sulfamoyl}pyridin-2-yl)-1H-pyrrolo[2,3-b]pyridine-3-carboxamide] | < 500 nM | 206 to 208 °C
C[C@H](NS(=O)(=O)c1cnc(-c2c(C(N)=O)c3cc(C(F)F)cnc3n2C2CCC2)nc1)C(F)(F)F [Cpd 470, 1-cyclobutyl-5-(difluoromethyl)-2-(5-{[(2S)-1,1,1-trifluoropropan-2-yl]sulfamoyl}pyrimidin-2-yl)-1H-pyrrolo[2,3-b]pyridine-3-carboxamide] | < 500 nM | 199 to 201 °C
CC(C)(NS(=O)(=O)c1ccc(-c2c(C(N)=O)c3cc(C(F)F)cnc3n2C2CCC2)nc1)C(F)(F)F [Cpd 471, 1-cyclobutyl-5-(difluoromethyl)-2-{5-[(1,1,1-trifluoro-2-methylpropan-2-yl)sulfamoyl]pyridin-2-yl}-1H-pyrrolo[2,3-b]pyridine-3-carboxamide] | < 500 nM | 205 to 207 °C
NC(=O)c1c(-c2ccc(S(=O)(=O)NC3(C(F)(F)F)CC3)cn2)n(C2CCC2)c2ncc(C(F)F)cc12 [Cpd 472, 1-cyclobutyl-5-(difluoromethyl)-2-(5-{[1-(trifluoromethyl)cyclopropyl]sulfamoyl}pyridin-2-yl)-1H-pyrrolo[2,3-b]pyridine-3-carboxamide] | < 500 nM | 210 to 212 °C
CCc1cnc2c(c1)c(C#N)c(-c1ccc(S(=O)(=O)N[C@@H](C)C(F)(F)F)cn1)n2-c1ncc(F)cn1 [Cpd 473, 6-[3-cyano-5-ethyl-1-(5-fluoropyrimidin-2-yl)-1H-pyrrolo[2,3-b]pyridin-2-yl]-N-[(2S)-1,1,1-trifluoropropan-2-yl]pyridine-3-sulfonamide] | < 500 nM | 175 to 177 °C
